Consider three molecules from PMC11819963, “In Vitro CO-Releasing and Antioxidant Properties of Sulfonamide-Based CAI-CORMs in a H2O2-Stimulated Human Achilles Tendon-Derived Cell Model” (Molecules, 2025).

Molecules are shown by their SMILES. Where two headings read alike, the source gives them in different places.

The target of data set [1] is T1, hCA II (Homo sapiens, UniProt P00918). In words: stopped-flow CO2 hydrase assay, hCA II. In kind it is biochemical. As to conditions: mean from three assays, errors ±5–10%. The method, then:
(§1) The CO2 concentrations ranged from 1.7 to 17 mM for the determination of the kinetic parameters and inhibition constants. […] The uncatalysed rates were determined in the same manner and subtracted from the total observed rates. […] The inhibition constants were obtained by non-linear least-squares methods using PRISM 3 and the Cheng–Prusoff equation and represent the mean from at least three different determinations.

For data set [2], the target named is T2, hCA IX (Homo sapiens, UniProt Q16790). In words: stopped-flow CO2 hydrase assay, hCA IX. The data set is classed as biochemical. As to conditions: mean from three assays, errors ±5–10%. As for the experimental part: as §1
Data set [3] relates to reduced myoglobin (deoxy-Mb). Kind of data set: myoglobin carbonylation assay (CO release). Further details: species or system horse. The following applies: for CO-release profile (MbCO formed over time): 1:1 and 1:6 CORM:Mb, up to 300 min, comparison within series; for MbCO formed: after 210 min of incubation, 1:1 CORM–Mb ratio (about 20 μM CORM). The method, then:
To determine the CO-releasing properties of the designed compounds, the myoglobin carbonylation assay was employed, with some deviations from the standard protocol, as previously reported. The analysed compounds were incubated with reduced myoglobin (deoxy-Mb), and spectra were recorded every 30 min up to 300 min. The release of CO was assessed by evaluating the formation of carbonylated myoglobin (Mb-CO) over time (Figure 3). […] The releasing properties of the compounds were also expressed as CO units released after 300 min of incubation with Mb, as reported in Figure S1 (Supplementary Information File).
All the employed reagents were of analytical grade and acquired from Merck (Milan, Italy). Gaseous CO was obtained from Rivoira (Milan, Italy). A Shimadzu UV1900 UV-Vis Spectrophotometer from 275 to 700 nm at the scanning rate of 200 nm/min was used to record UV-Vis absorption spectra in a disposable plastic cuvette (path length 0.44 cm). The second derivative spectra were generated with the Origin Lab software, and the Savitzky–Golay method was applied using 25 data points for the differentiation process. Neither an increase nor a decrease in the number of points caused changes in the wavelength or in the bandwidth. Lyophilised horse heart Mb was dissolved in phosphate-buffered saline flushed with N2 (PBS, 0.01 M, pH 7.4 to a 20–22 μM final concentration). Two millilitres of this freshly prepared stock solution were placed in a cuvette to record the UV-Vis absorption spectrum of met-Mb. Next, the solutions were divided into two halves: 10 μL of sodium dithionite (30 mg/mL) was added to the first half (reference), and the UV–Vis spectrum of deoxy-Mb was registered. After that, the solution was flushed with CO gas, and the Mb-CO spectrum was acquired. Sodium dithionite was added to the second half (sample), and a spectrum was recorded. Afterwards, a CORM DMSO solution was added to a final CORM concentration of 1.67 μM, 3.33 μM or 20 μM and gently mixed. The solution was covered with 300 μL of light mineral oil to avoid CO escaping and oxygenation of Mb, and the absorption spectrum was recorded at t = 0. Spectra were acquired every 30 min for 300 min, keeping the sample at 37 °C. When necessary, a freshly prepared sodium dithionite solution was added. After 300 min, the total Mb concentration at the end of the assay was determined by flushing the sample with CO gas. Mb-CO concentration at each time point was determined, as previously reported. Each experiment was replicated three times, and the data were expressed as mean ± SEM.

The test system of data set [4] is Human Achilles tendon-derived tenocytes. Kind of data set: cell metabolic activity (MTT test), basal conditions. The data set is classed as cell-based. The following applies: for cell metabolic activity (MTT): 6.25–50 µM, vs untreated control. A general note: Tetrazolium assays rely on reduction of a dye to a coloured formazan, in cell work by metabolically active cells.
Procedure: Human Achilles tendon-derived tenocytes (#TEN-F) were purchased by ZenBio Inc. (Durham, NC, USA) and maintained in complete alpha-MEM (EuroClone, Milan, Italy) supplemented with 10% of heat-inactivated FBS (Gibco, Thermo Fisher Scientific, Waltham, MA, USA) and 1% penicillin/streptomycin (EuroClone, Milan, Italy) at 37 °C and 5% CO2 and used from passage 3 up to passage 6.
Cells were seeded in 96-well plates (0.5 × 10^4/well) or 6-well plates (0.5 × 10^5/well) (ThermoFisher Scientific, Waltham, MA, USA) and left to adhere overnight at 37 °C and 5% CO2. For cell metabolic activity experiments (MTT test), tenocytes were treated with increasing concentrations of compounds (range 0–50 µM) for 24 and 48 h. Compounds were dissolved in DMSO to obtain a 200 mM stock solution, and they were afterwards diluted in complete alpha-MEM (DMSO final concentration = 0.1%) for further analyses. In a second set of MTT experiments, tenocytes were pre-incubated with 100 µM H2O2 for 3 h. After that, the pre-incubation medium was discarded and replaced with a fresh one containing the proper compound at increasing concentrations for 24 and 48 h. At the established time points, samples were processed for further analyses.
Tenocytes were seeded in 96 well tissue culture-treated plates (Falcon®, Corning Incorporated, Brooklyn, NY, USA) at 0.5 × 10^4 cells/well. Untreated cells (0 µM) were set as control (100% of cell metabolic activity). At the established time points, the exposure media were replaced by fresh medium containing 3-(4,5-dimethylthiazol-2-yl)-2,5-diphenyltetrazolium bromide (MTT) 0.5 mg/mL (Merck, Darmstadt, Germany) and processed as elsewhere reported [18]. The optical density in each well was measured using a spectrophotometer (Thermo Fisher Scientific, Waltham, MA, USA) at a wavelength of 540 nm. Each experiment was performed three times in triplicates per experimental condition (n = 9).

In data set [5] the test system is H2O2-stimulated human Achilles tendon-derived tenocytes. Kind of data set: cell metabolic activity (MTT test), pre-incubation with H2O2. The following applies: 6.25–50 µM, after H2O2 100 µM for 3 h. The data set is classed as cell-based.
Data set [6] has the same test system. Kind of data set: collagen type I secretion (ELISA). The following applies: 48 h, after H2O2 100 µM for 3 h, compared to untreated cells, normalised on MTT. The data set is classed as cell-based. As for the experimental part:
Compound A and acetazolamide were administered as reference compounds.
Amounts of collagen type I secreted in supernatants harvested from 96 well plates were detected by a human collagen type 1 ELISA kit (Cosmo Bio Co., Ltd., Tokyo, Japan; cat. no. ACE-EC1-E105-EX). Samples were pipetted into suitably coated wells as described elsewhere. Each ELISA test was performed three times in duplicates per experimental condition (n = 6). The concentration of collagen type I (µg/mL) was calculated using a standard curve generated with a specific standard provided by the manufacturer by means of the Prism 5.0 software (GraphPad, San Diego, CA, USA).
Background: An ELISA detects its analyte on a solid surface through an enzyme-linked reagent.

Another data set deals with hCA I (Homo sapiens, UniProt P00915). The following applies: cited from earlier work.
Chain of hCA I (P00915 whole entry): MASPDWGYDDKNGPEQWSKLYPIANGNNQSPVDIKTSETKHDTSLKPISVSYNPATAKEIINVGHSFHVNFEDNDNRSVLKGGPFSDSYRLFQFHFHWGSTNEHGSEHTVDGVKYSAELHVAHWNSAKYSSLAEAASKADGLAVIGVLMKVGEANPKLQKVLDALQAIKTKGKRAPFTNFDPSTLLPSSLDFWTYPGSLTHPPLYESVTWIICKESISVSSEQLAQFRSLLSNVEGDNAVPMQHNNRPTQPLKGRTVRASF
In data set [7] the target is T3, hCA XII (Homo sapiens, UniProt O43570). Kind of data set: stopped-flow CO2 hydrase assay, hCA XII. In kind it is biochemical. As to conditions: mean from three assays, errors ±5–10%. As for the experimental part: as §1
T3 sequence (O43570 25-354): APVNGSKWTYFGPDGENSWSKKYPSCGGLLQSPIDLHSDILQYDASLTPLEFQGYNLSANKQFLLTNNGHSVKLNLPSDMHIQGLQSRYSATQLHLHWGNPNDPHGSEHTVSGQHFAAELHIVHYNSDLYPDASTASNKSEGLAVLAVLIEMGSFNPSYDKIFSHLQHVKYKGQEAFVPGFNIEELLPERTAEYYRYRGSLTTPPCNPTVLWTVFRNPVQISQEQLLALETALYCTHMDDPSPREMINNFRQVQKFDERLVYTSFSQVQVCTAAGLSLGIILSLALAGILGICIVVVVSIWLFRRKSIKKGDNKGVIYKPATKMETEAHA
In data set [8] the target is T1, hCA II. Also on record: method as in earlier work. The following applies: alkyne precursors marked a in Table S1; cited from earlier work.
For data set [9], the target named is T2, hCA IX. Further details: method as in earlier work. As to conditions: alkyne precursors marked a in Table S1; cited from earlier work.
In data set [10] the target is T3, hCA XII. Also on record: method as in earlier work. As to conditions: alkyne precursors marked a in Table S1; cited from earlier work.
[11] abbreviates: stopped-flow CO2 hydrase assay, cells marked a.

Consider `C#CCNc1ccc(S(N)(=O)=O)cc1.[C-]#[O+].[C-]#[O+].[C-]#[O+].[C-]#[O+].[C-]#[O+].[C-]#[O+].[Co].[Co]` [1a, 4-(prop-2-ynylamino)benzenesulfonamide hexacarbonyldicobalt], for which the results for the Ki at hCA II [1] and at hCA I (setting [11]) were 215 nM and 901 nM, respectively. For the same molecule, on hCA IX [2], the “KI hCA IX” value is listed as “ineffective”. The “CO-release profile (MbCO formed over time)” value in data set [3] was “the fastest and most efficient releaser among the series”. For the same molecule, the MbCO formed in data set [3] is 9.05 µM. Also, in data set [3] (after 300 min of incubation with Mb, 1:6 CORM:Mb ratio (3.33 μM CORM), 37 °C), the CO units released came out at 1.6 CO units. The “cell metabolic activity (MTT)” value in [4] (24 h exposure) is given as “significantly increase cell metabolic activity”; in data set [4] (48 h exposure), “well increases cell metabolic activity at the lower concentrations”. In addition, the “cytotoxicity (MTT)” value in data set [5] (24 h exposure) was “cytotoxic at the highest concentrations used”; in data set [5] (48 h exposure), “reveal cytotoxicity at the highest concentrations”. In data set [6], the “collagen type I secretion” value was “dramatically increases its secretion almost three times”.

As for `C#CCOc1ccc(S(N)(=O)=O)cc1.[C-]#[O+].[C-]#[O+].[C-]#[O+].[C-]#[O+].[C-]#[O+].[C-]#[O+].[Co].[Co]` [1b, 4-(Prop-2′-ynyloxy)benzenesulfonamide hexacarbonyldicobalt], the Ki (usually a measure of affinity in units of concentration, obtained from inhibition or displacement) at hCA II [1] is 40.9 nM; on hCA IX [2], 5.4 nM; at hCA XII [7], 0.9 nM; on hCA I (setting [11]), 1340 nM. For the same molecule, the “CO-release profile (MbCO formed over time)” value in data set [3] is recorded as “the most efficient”. For the same molecule, the MbCO formed in data set [3] is 6.39 µM. Further, the “cell metabolic activity (MTT)” value in data set [4] (24 h exposure) is given as “significantly increase cell metabolic activity”. In [4] (48 h exposure), the “concentration at which cytotoxicity is seen (MTT)” value is recorded as not below 25 µM.

`C#CCN(CC#C)c1ccc(S(N)(=O)=O)cc1` [C, 4-(diprop-2′-ynylamino)benzenesulfonamide]: the Ki is 6400 nM at hCA I (alkyne precursors marked a in Table S1), 1780 nM at hCA II [8], 9 nM at hCA IX [9] and 4.9 nM at hCA XII [10].
